Experimental data published in patent publication US20240293364A1, “BIOMARKERS FOR CANCER THERAPY USING MDM2 ANTAGONISTS” (OTSUKA PHARMACEUTICAL CO., LTD., priority 2021, published 2024).

Assays:
CAL-51 = assay: CellTiter-Glo cell viability, combination matrix with PARP inhibitors (HSA synergy), CAL-51; format: cell-based; conditions: CAL-51, TP53 WT, BRCA2 Mutant, 72 h
Description: (§1) The cell line will be treated with test articles alone, matrix combinations with test articles and culture medium as vehicle control.
(§2) • 1. Harvest cells during the logarithmic growth period and count cell number. • 2. Adjust cell concentrations to 4.0×10^4cells/mL with respective culture medium. • 3. Add 100 μL cell suspensions to three 96-well plates (plates A, B and C) with the final cell density of 4×10^3 cells/well. 4a. Next Day: For the Plates of TO Reading: • 1) Equilibrate the plate A and its content at RT for approximately 30 min. • 2) Add 50 μL CellTiter-Glo reagent to each well. • 3) Mix content for 5 min on an orbital shaker to induce cell lysis. • 4) Allow the plate to incubate at RT for 20 min to stabilize luminescent signal. • 5) Record luminescence (TO) using EnVision Multi Label Reader. 4b. For the Plates of Test Reading: • 1) Prepare 500× solution of test articles (Top working concentration: 10 μM/100 μM of test articles in media with 3-fold serial dilutions to achieve 9 dose levels. • 2) Prepare 10× reference control solutions (Top working concentration: 100 μM in media with 3.16-fold serial dilutions. • 3) Dispense 500× drug solutions in each well (triplicate for each drug concentration) of the plate B using digital dispenser. […] Record luminescence (T3) using EnVision Multi Label Reader. […]

[1] = tested on: ATM mutant cell lines (HCC1500, LNCap, HT-144, HepG2); assay: Proliferation assays on cancer cell lines (CellTiter-Glo), ATM mutant cell lines; format: cell-based; conditions: four ATMmut cell lines: HCC1500 breast, LNCap prostate, HT-144 melanoma, HepG2 liver (FIG. 2C)
Description: (§3) Cancer cells were cultured in appropriate medium. […] Each cell line was tested in triplicates.

A2780 = assay: CellTiter-Glo cell viability, combination matrix with PARP inhibitors (HSA synergy), A2780; format: cell-based; conditions: A2780, TP53 WT, DDR defective, 72 h
Description: as §1, §2

[2] = tested on: patient-derived organoids (PDOs); assay: Proliferation assays on patient-derived organoids (PDOs), BRCA1/BRCA2/ATM status; format: cell-based
Description: Organoids were retrieved from the CrownBIO organoid bank and expanded before getting enough quantity according to standard operation procedure. One day before organoids seeding, the needed number of organoids were passaged 1:1 using 50% Matrigel and 50% corresponding culture medium. On Day 0 organoids were seeded and compound added: organoids were collected by adding 20 μl 100× Dispase solution to each well from a 6-well plate, and incubating at 37C for 30 min. After incubation, organoids were collected from all wells and pipetted through a pre-wet 100 μm filter into a 50 ml plastic tube, then filtered the flow through over a pre-wet 20 μm filter, inverted the 20 μm filter and recovered the organoids in a new 50 ml tube, Collect organoids were then resuspended in the corresponding culture media, and counted. Organoids cell suspensions were added to 384-well plate by Multidrop dispenser. 2-4 hours after organoids seeding, compounds were added by Tecan D300e, then plates were placed back into incubator for 5 days' incubation. On day 5, proliferation was assayed by CellTiter-Glo assay. […] The plate was then read (for luminescence) in an Envision plate reader.

[3] = tested on: xenograft model of MSI-H colorectal cancer (HCT-116); assay: In vivo efficacy, HCT116 xenograft; parameters: species or system BALB/c nude mice; conditions: HCT-116 xenograft, 50 mg/kg daily (FIG. 4D)
Description: 5×10^6 HCT116 cells (in 100 μl of PBS) were injected subcutaneously into the right hind flank of groups of BALB/c nude mice. Tumours were measured externally by using a pair of digital callipers and volumes calculated as length×width^2×0.523. Before starting the study, the mice were arranged into groups of 8 according to tumour volume; mean volume should be circa 100 mm^3 with a normal range of 50 to 150 mm^3. […] Tumour volumes were measured every 2 to 3 days; animals were sacrificed when tumour volume was >1000 mm^3 or if the tumours started to show any abnormalities, such as ulceration.

MSI-H cell lines = assay: Proliferation assays on cancer cell lines (CellTiter-Glo), MSI-H cell lines; format: cell-based; conditions: eight MSI-H cell lines from different indications (FIG. 4B)
Description: as §3

[4] = Compound 1 in combination with Olaparib
[5] = Compound 1 in combination with Talazoparib

**Q.** For CC[C@@](O)(c1cc(F)c2c(c1)C(=O)N([C@H](c1ccc(Cl)cc1)[C@H](C)C(=O)O)[C@@]2(OC)c1ccc(Cl)cc1)C1CCOCC1 [Example 124, (2S,3S)-3-(4-chlorophenyl)-3-[(1R)-1-(4-chlorophenyl)-7-fluoro-5-[(1S)-1-hydroxy-1-(oxan-4-yl)propyl]-1-methoxy-3-oxo-2,3-dihydro-1H-isoindol-2-yl]-2-methylpropanoic acid], which “HSA_Average <−5 Antagonism >+5 Synergy” value (CAL-51; [4]) is on record?
**A.** 8.0

**Q.** And the “HSA_Average <−5 Antagonism >+5 Synergy” value (CAL-51; [5])?
**A.** 15.7

**Q.** And the “sensitivity as measured by reduction in cell proliferation” value (from here on “sensitivity as measured by reduction”) [1]?
**A.** showed sensitivity

**Q.** What about the “HSA_Average <−5 Antagonism >+5 Synergy” value (A2780; [4]) of the same compound?
**A.** 6.2

**Q.** And the “HSA_Average <−5 Antagonism >+5 Synergy” value (A2780; [5])?
**A.** 12.3

**Q.** What about the “sensitivity as measured by reduction” value ([2]; 4 PDOs with alterations in either ATM, BRCA1 and/or BRCA2 (FIG. 2F-G)) of the same compound?
**A.** showed sensitivity

**Q.** And the “sensitivity as measured by reduction” value ([2]; 4 additional PDOs with no alterations in ATM, BRCA1 and/or BRCA2)?
**A.** resistant

**Q.** What about the tumour growth inhibition [3] of the same compound?
**A.** significantly inhibits tumour growth

**Q.** What about the “sensitivity as measured by reduction” value (MSI-H cell lines) of the same compound?
**A.** showed sensitivity
